Assay results as given in patent publication US7214673B2, “Piperazine substituted aryl benzodiazepines and their use as dopamine receptor antagonists for the treatment of psychotic disorders” (Eli Lilly and Company, priority 2002, dated 2007).

Legend:
Dopamine D2 receptor = biological target: T1, Dopamine D2 receptor (Homo sapiens, UniProt P14416); assay: Dopamine D2 receptor binding assay ([125I]iodospiperone); details: [125I]iodospiperone 0.1 nM, D2 receptor membranes, 2 hours at room temperature; read-out: Relative D2 Receptor Binding Affinity Ki
T1 construct: purchased Receptor Biology (now owned by NEN) RBHD2CM
Protocol: Serotonin 5-HT6 and Dopamine D2 Binding Assay Protocol
The assay buffers used are 50 mM Tris-HCl pH 7.4, 120 mM NaCl, 5 mM KCl, 5 mM MgCl2, 1 mM EDTA for the Dopamine D2s receptor binding assay. […] The membranes used are from Receptor Biology (now owned by NEN), Cat #RBHD2CM for the D2 receptor.
Compounds are obtained as 10 mM stocks in 100% DMSO. They are diluted to 1 mM in 100% DMSO by adding 180 μL DMSO to 20 μL of stock in 96 well plates using a multidrop. […] This is done using a TECAN robot.
The radioligand is diluted in assay buffer to provide 0.1 nM for the D2 assay. Each vial of membranes is diluted up to 92 mL in assay buffer. The final assay volume is 250 μL consisting of 210 μl of diluted membranes, 20 μL of compound or 10% DMSO for total binding, and 20 μL of diluted radioligand. The compounds are transferred from drug dilution plates into coming 96 well assay plates using a 96 well Multimek pipettor. Radioligand and membranes are added to assay plates using multidrop pipettors. Non-specific binding is determined in wells containing a final concentration of 5 μM haloperidol. The final drug concentration range in half logs is from 10 μM down to 0.1 nM.
After addition of drug, membrane, and ligand, the plates are incubated for 2 hours at room temperature. During this time 96 well Millipore filter plates (MAFBNOB50) are soaked for a least 30 minutes with 200 μL per well of 0.5% polyethyleneimine.
The 0.5% PEI is removed from filterplate wells using a TiterTek MAP aspirator and 200 μL of the incubation mixture is transferred from the incubation plate to the filterplate after mixing. This transfer is done using the 96 tip Mutimek pipettor. After transfer to the filterplate filterplates are extracted and ished twice with 220 μL per well of cold buffer on the MAP aspirator. The peel away bottoms are removed from the filterplates and 60 μL per well of microscint 20 scintillation fluid is added per well using a multidrop. Plates are placed into suitable holders and are left at room temperature for 3 hours and are counted for ^3H in either a Wallac Microbeta counter or on a Packard Topcount.

T1 sequence (P14416 1-414 isoform P14416-2): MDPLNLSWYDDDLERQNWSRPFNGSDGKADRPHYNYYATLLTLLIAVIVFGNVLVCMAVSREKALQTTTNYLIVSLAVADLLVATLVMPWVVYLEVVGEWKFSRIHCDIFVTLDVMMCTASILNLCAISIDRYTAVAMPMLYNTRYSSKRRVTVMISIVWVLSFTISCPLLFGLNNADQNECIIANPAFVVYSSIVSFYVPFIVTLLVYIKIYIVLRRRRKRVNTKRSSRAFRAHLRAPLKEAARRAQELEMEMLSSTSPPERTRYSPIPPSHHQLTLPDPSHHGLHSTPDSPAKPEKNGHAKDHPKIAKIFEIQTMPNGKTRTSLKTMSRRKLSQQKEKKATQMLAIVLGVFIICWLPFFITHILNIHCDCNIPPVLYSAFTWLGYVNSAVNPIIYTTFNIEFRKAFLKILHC

| Ki (Dopamine D2 receptor) [nM] | melting point [°C] | SMILES |
| --- | --- | --- |
| < 10 | 82 to 94 | Cc1cc2c(s1)Nc1ccccc1N=C2N1CCN[C@@H](Cc2ccsc2)C1 [Example 212] |
| 10 to 100 | 58 to 72 | Cc1cc2c(s1)Nc1ccccc1N=C2N1CCN(C)[C@@H](Cc2ccsc2)C1 [Example 219] |

Continued, compound first:

| SMILES | Ki (Dopamine D2 receptor) [nM] | melting point [°C] |
| --- | --- | --- |
| Cc1cc2c(s1)Nc1ccccc1N=C2N1CCN(C)[C@@H](CCc2ccccc2)C1 [Example 90, 2-Methyl-10-(4-methyl-3-(S)-phenethyl-piperazin-1-yl)-4H-3-thia-4,9-diaza-benzo[f]azulene] | 10 to 100 | 87 to 91 |
| Cc1cc2c(s1)Nc1ccccc1N=C2N1CCN(C)[C@@H](Cc2ccccc2)C1 [Example 92] | 10 to 100 | 94 to 97 |
| Cc1cccc(C[C@H]2CN(C3=Nc4ccccc4Nc4sc(C)cc43)CCN2C)c1 [Example 103] | 10 to 100 | 67 to 83 |
| COc1ccccc1C[C@H]1CN(C2=Nc3ccccc3Nc3sc(C)cc32)CCN1C [Example 109] | < 10 | 81 to 93 |
